Test results published in patent US5726208A, “Heterocyclic tertiary amines” (Adir et Compagnie, priority 1995, dated 1998).

System: D2 receptor
Assay: Binding to cloned D2 receptors ([125I]-iodosulpride displacement)
Details: reference aminotetralines
Procedure: Pharmacological study STUDIES OF THE BINDING OF THE COMPOUNDS OF THE INVENTION TO D2 AND D3 RECEPTORS
The results are expressed in the form of pKi (pKi =-logKi).
The Ki value is derived from the formula Ki =IC50 /(1+L/KD), where L is the concentration of [^125 I]-iodosulpride used in the experiment and Kd its dissociation constant.
The IC50, which represents the concentration that gives a 50% inhibition of the binding of the radioligand, is calculated by non-linear regression (Simplex method).

| SMILES | selectivity (D3 versus D2) |
| --- | --- |
| CCCN[C@@H]1CCc2c(OC)cccc2[C@@H]1C [(+) AJ 76] | 2 |
| CCCN(CCC)[C@@H]1CCc2c(OC)cccc2[C@@H]1C [(+) UH 232] | 5 |
